Laboratory results published in patent publication US20230357301A1, “HEXOSE DERIVATIVES, PREPARATION AND USES THEREOF” (Faculdade de Ciencias da Universidade de Lisboa, priority 2014, published 2023).
Values belong to the compound of their own block, whether it stands above or below them.

Assays:
[1] = biological target: T1, malate dehydrogenase (MDH) (Sus scrofa, UniProt P00346); assay: DSF thermal stability assay, malate dehydrogenase; design: species or system pig; details: solute 0.1, 0.25 and 0.5 M (FIG. 9)
T1 construct: Mitochondrial malate dehydrogenase from pig heart (MDII) was purchased from Roche; purchased Roche; host or cells: pig heart
T1 sequence (P00346 25-338): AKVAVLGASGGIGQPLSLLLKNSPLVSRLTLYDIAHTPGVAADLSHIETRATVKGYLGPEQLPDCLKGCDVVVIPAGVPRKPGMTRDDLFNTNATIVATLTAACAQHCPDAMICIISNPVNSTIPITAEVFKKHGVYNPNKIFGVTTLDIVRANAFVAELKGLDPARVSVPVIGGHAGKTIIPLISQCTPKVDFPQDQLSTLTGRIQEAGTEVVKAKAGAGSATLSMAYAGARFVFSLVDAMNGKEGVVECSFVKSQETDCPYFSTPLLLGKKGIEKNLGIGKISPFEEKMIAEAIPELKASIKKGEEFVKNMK
Description: (§1) The DSF based stability assays were performed at each protein working pH and the melting temperatures (TM) values determined in the absence (control experiments) and in the presence of solutes, and at different solute concentrations. The denaturation curves for each assay were analysed, and the melting temperatures determined by the calculation of the first derivative, which corresponds to the midpoint temperature of the protein-unfolding transition. In the absence of solutes, malate dehydrogenase (MDH), staphylococcal nuclease (SNase) and lysozyme have melting temperatures (TM) of 50, 52 and 71° C. respectively. The unfolding temperature shifts (ΔTM) were calculated by comparing the TM values obtained in the presence of solutes with the TM values of the control experiments (absence of solutes).
(§2) Mannosylglycerate (MG), glucosylglycerate (GG), glucosylglucosylglycerate (GGG), mannosyl glycolate (MGly) and mannosyl lactate (ML) were obtained by chemical synthesis as described in literature (Costa 1998). New synthetic compounds were obtained by chemical synthesis as described in Example 1. […] Purity and concentration of the compounds was assessed by ^1H NMR spectra obtained at 500 MHz spectrometer in D2O. For quantification purposes, spectra were acquired with a repetition delay of 60 s with formate as concentration standard. […]

porcine insulin = biological target: T2, porcine insulin (Sus scrofa, UniProt P01315); assay: DSF thermal stability assay, porcine insulin; details: insulin 129 µM, solute 0.1 and 0.25 M (FIG. 11)
T2 construct: solutions comprising porcine insulin at a concentration of 129 µM
T2 sequence (P01315 25-54 limits assumed): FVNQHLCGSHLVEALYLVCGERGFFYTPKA
T2 sequence (P01315 88-108 limits assumed): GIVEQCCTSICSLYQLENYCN

lysozyme = biological target: T3, lysozyme (Gallus gallus, UniProt P00698); assay: DSF thermal stability assay, lysozyme; design: species or system hen
T3 construct: hen egg white lysozyme was purchased from Sigma-Aldrich; purchased Sigma-Aldrich; host or cells: hen egg white
T3 sequence (P00698 19-147): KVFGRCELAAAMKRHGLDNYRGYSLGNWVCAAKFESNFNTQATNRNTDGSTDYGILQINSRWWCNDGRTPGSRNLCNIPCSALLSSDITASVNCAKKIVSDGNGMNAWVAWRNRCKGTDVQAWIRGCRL
Description: The DSF based stability assays were performed at each protein working pH and the melting temperatures (TM) values determined in the absence (control experiments) and in the presence of solutes, and at different solute concentrations. The denaturation curves for each assay were analysed, and the melting temperatures determined by the calculation of the first derivative, which corresponds to the midpoint temperature of the protein-unfolding transition. […] The unfolding temperature shifts (ΔTM) were calculated by comparing the TM values obtained in the presence of solutes with the TM values of the control experiments (absence of solutes).
Mitochondrial malate dehydrogenase from pig heart (MDII) was purchased from Roche, and hen egg white lysozyme was purchased from Sigma-Aldrich. These enzymes were used without further purification.
The protein melting temperature (TM) determination was performed by monitoring protein unfolding with the fluoroprobe SYPRO Orange dye (Molecular Probes), which although completely quenched in aqueous environment, emits fluorescence upon binding to protein hydrophobic patches. Such increase in fluorescence can be measured as a function of temperature using Differential Scanning Fluorimetry. In a typical assay with a total volume of 20 µL, a protein concentration from 0.14 to 0.21 mg/mL, and a dye concentration of 5 fold were used to guarantee the best signal to noise ratio. Protein stock solutions of SNase or MDH were prepared in phosphate buffer (20 mM of sodium phosphate, pH 7.6), and lysozyme was prepared in citrate buffer (40 mM sodium citrate, 110 mM NaCl, pH 6.0). These stock solutions were extensively dialyzed against the same buffer before the assays. […] Solute solutions were prepared in water with the respective concentrations. […] Fluorescence intensities versus temperature are used to calculate the protein melting temperature (TM) by determining the first derivative (d(Rfu)/dT) to extract the exact transition inflection point.

[2] = biological target: T4, staphylococcal nuclease (SNase) (Staphylococcus aureus, UniProt P00644); assay: DSF thermal stability assay, staphylococcal nuclease; details: solute 0.1, 0.25 and 0.5 M (FIG. 8)
T4 construct: Recombinant staphylococcal nuclease A (SNase) was produced and purified from Escherichia coli cells; made in house; host or cells: Escherichia coli
Description: as §1, §2

dependence of MDH melting temperature on the concentration of solutes [1]: the best stabiliser
increment in melting temperature of porcine insulin (porcine insulin): highest increases in melting temperature
Compound: Potassium (2S)-2-O-(α/β-D-glucopyranosyl)-2-hydroxysuccinate [glucosyl malate]

Compound: CC(=O)[O-].[K+] [AcOK, potassium acetate]
stabilising effect of AcOK alone on lysozyme (lysozyme; AcOK alone, concentration dependence (FIG. 6)): not a good stabiliser, stabilising only at high salt concentrations
stabilising effect of AcOK on lysozyme in conjugation with hypersolutes (lysozyme; AcOK with hypersolutes (0.5 M) (FIG. 6)): able to enhance their stabilisation properties

Compound: Potassium (2S) -2-0- (α/β-D-galactopyranosyl)-2-hydroxysuccinate [α-galactosyl malate]
dependence of lysozyme melting temperature on the concentration of solutes (lysozyme; solute 0.1, 0.25 and 0.5 M (FIG. 10)): clearly the best stabiliser
dependence of SNase melting temperature on the concentration of solutes [2]: clearly the best stabiliser

increment in melting temperature of porcine insulin (porcine insulin): highest increases in melting temperature
Compound: O=C([O-])COC1O[C@H](CO)[C@@H](O)[C@H](O)[C@H]1O.[K+] (stereo partly drawn) [glucosyl glycolate, Potassium 2-(α/β-D-glucopyranosyl) acetate]
